Earlier results as cited in patent US20240100008A1, “ADMINISTRATION OF GLYCEROL TRIBENZOATE AND GLYCEROL PHENYLBUTYRATE FOR TREATMENT OF NEURODEGENERATIVE AND UREA CYCLE DISORDERS” (Rush University Medical Center, priority 2020, published 2024).

Experiments:
[1] = not given; remark: listed apart in the source
[2] = tested on: BDNF; details: brain cells
[3] = tested on: NT-3; details: brain cells
[4] = tested on: DJ-1; details: astrocytes and neurons
[5] = tested on: animal model of Alzheimer's disease
[6] = tested on: multiple sclerosis in mice

## O=C(CCCc1ccccc1)OCC(COC(=O)CCCc1ccccc1)OC(=O)CCCc1ccccc1 [glycerol phenylbutyrate, Glycerol phenylbutyrate]
In vivo, po
  side effect: diarrhea is a common side effect

## O=C(OCC(COC(=O)c1ccccc1)OC(=O)c1ccccc1)c1ccccc1 [glyceryl (i.e. glycerol) tribenzoate, glycerol tribenzoate]
[1]; in vivo
  release form of sodium benzoate: sustained-release and a slow-release form

## O=C([O-])c1ccccc1.[Na+] [sodium benzoate, Sodium benzoate]
[2]
  production of BDNF: increases
[3]
  production of NT-3: increases
[4]
  DJ-1 protein level: upregulates
[5]
  memory and learning: protecting memory and learning
  oxidative stress: attenuating oxidative stress
patients, high dose sodium benzoate several times a day
  side effects: feel drowsy and also suffer from nausea, vomiting and headache
[6]
  disease process of multiple sclerosis: suppresses
[1]; through urine
  excretion from the body: quickly excreted
